Data as given in PubChem BioAssay (NCI).
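Interpolation was linear, between the two tested concentrations surrounding the appropriate level; five concentrations were tested over 48 hours in 96-well plates. TGI: concentration producing complete growth inhibition.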 Where a SMILES comes first, the peptide text is derived from it. The star is where a group is joined. Bn = c1ccc(C*)cc1

Assays:
Experiment in all cases: DTP human tumour cell line panel, 48 h
SF-295 CNS = tested on: SF-295 CNS
HT29 colon = tested on: HT29 colon
RPMI-8226 leukemia = tested on: RPMI-8226 leukemia
SF-539 CNS = tested on: SF-539 CNS
ACHN renal = tested on: ACHN renal
HOP-62 NSCLC = tested on: HOP-62 NSCLC
HCT-15 colon = tested on: HCT-15 colon
COLO 205 colon = tested on: COLO 205 colon
IGROV1 ovarian = tested on: IGROV1 ovarian

| Compound | TGI (SF-295 CNS) [µM] | TGI (HT29 colon) [µM] | TGI (RPMI-8226 leukemia) [µM] | TGI (SF-539 CNS) [µM] | TGI (ACHN renal) [µM] | TGI (HOP-62 NSCLC) [µM] | TGI (HCT-15 colon) [µM] | TGI (COLO 205 colon) [µM] | TGI (IGROV1 ovarian) [µM] |
| --- | --- | --- | --- | --- | --- | --- | --- | --- | --- |
| O=C1CC(Sc2nc3ccc(I)cc3c(=O)n2Cc2ccccc2)C(=O)NN1 (centres undefined) | 36.9 | 38.6 | 45.5 | 35.5 | 30.2 | 35.1 | 28.8 | 34.5 | 25.2 |
| CC(C)(C)OC(=O)n1c(-c2ccccc2F)cc(=O)c2cc3c(cc21)OCO3 | > 100 | 0.368 | 20.7 | > 72.9 | > 58.7 | > 100 | > 31.9 | – | – |
| Cc1cc2c(nn1)-c1ccccc1C2=O | > 10 | > 10 | > 10 | > 10 | > 10 | > 10 | > 10 | > 10 | > 10 |
| N#Cc1c(C#N)c(-c2ccccc2)n(-c2ccccc2)c1N | > 100 | > 100 | > 100 | > 100 | > 100 | > 100 | > 100 | > 100 | > 100 |
| Cc1cc(/N=C/c2ccc(C#N)cc2)n(-c2ccccc2)n1 | > 100 | > 100 | > 100 | > 100 | > 100 | > 100 | > 100 | > 100 | > 100 |
| COc1ccc(N=Nc2c3c(c(O)c4ccccc24)CCC(C)(C)O3)cc1 | 30.3 | 27.6 | 98.1 | 62.3 | 32.4 | 52.9 | 28.9 | 72.8 | 35.5 |
| CC(C)(C)C(=O)C(Cc1ccccc1)C(=O)C(C)(C)C | > 100 | > 100 | > 100 | > 100 | > 100 | > 100 | > 100 | > 100 | > 100 |
| CC1=CC(=O)C(C(O)(C(F)(F)F)C(F)(F)F)C(C)(C)C1 (centres undefined) | > 10 | > 10 | > 10 | > 10 | > 10 | > 10 | > 10 | > 10 | > 10 |
| CC(C)(C)c1ccc(OCC(=O)O)c(Cl)c1 | > 100 | > 100 | > 100 | > 100 | > 100 | > 100 | > 100 | > 100 | > 100 |
| CC(O)CC(O)(C(F)(F)F)C(F)(F)F (centres undefined) | > 10 | > 10 | > 10 | > 10 | > 10 | > 10 | > 10 | > 10 | > 10 |
| CCCCC/C(C=O)=C\c1ccccc1 | > 100 | > 100 | > 100 | > 100 | > 100 | > 100 | > 100 | > 100 | > 100 |
| Nc1nc(Nc2ccccc2)sc1C(=O)c1c[nH]c2ccccc12 | – | 14.6 | > 100 | 27.4 | 62.2 | 30.9 | 14.7 | 17.1 | 31.2 |
| COC(=O)C1(Cc2ccc3c(c2)CCC3)Cc2cc3c(cc2C1)CCC3 | > 100 | 89.3 | > 100 | > 100 | > 100 | > 100 | > 100 | > 100 | > 100 |
| C=C1C(=O)OC2/C=C(/C)C3(O)OC(C)(CC(OC(=O)C(C)C)C12)CC3OC(C)=O (centres undefined) | 56.5 | 22 | > 100 | > 29.5 | 8.67 | > 100 | 24.5 | 18.1 | 36.6 |
| COc1cc(C=C2C(=O)NC(=S)NC2=O)cc(OC)c1OC | > 100 | > 100 | > 100 | > 100 | > 100 | > 100 | > 100 | > 100 | > 100 |
| O=C1CS(=O)C23c4cc5ccccc5n4CCC2CCCN13 (centres undefined) | > 100 | > 100 | > 100 | > 100 | > 100 | > 100 | > 100 | > 100 | > 100 |
| O=C1CCc2ccc3c(c21)CC1(Cc2ccccc2C1)C3 | 38 | 22 | > 100 | > 100 | > 100 | > 100 | > 100 | > 100 | > 100 |
| COC(=O)C(CC(C)C)NC(=O)C(N)Cc1ccc(OCc2ccccc2)cc1 (centres undefined) (H-Tyr(Bn)-Leu-OMe; configuration not given here) | > 10 | > 10 | > 10 | > 10 | > 10 | > 10 | > 10 | > 10 | > 10 |
| O=C(O)c1c2c(cc3c1CC1(Cc4ccccc4C1=O)C3)CCC2 (centres undefined) | > 100 | > 69.7 | 52.3 | > 95.4 | > 100 | > 100 | > 100 | 54.6 | > 100 |
| CCOC(=O)[C@@H]1ON2O[C@@H](OC3CCCC3(c3ccccc3)c3ccccc3)C[C@H]3OC(=O)[C@@H]1C32 (some centres undefined) | > 100 | 43.1 | 90.6 | 68 | 37 | > 100 | 60.7 | > 100 | > 100 |
| Clc1ccc(Cl)c(SCCCN2CCNCC2)c1 | 37.1 | 37.7 | 48.6 | 51.4 | 31.1 | 41.7 | 40.7 | 38.4 | 42.2 |
| COC(=O)c1cc2c(cc1CC(Cc1ccc3c(c1)CCC3)C(=O)OC)CCC2 (centres undefined) | > 100 | > 100 | 66.8 | > 100 | > 100 | > 100 | > 100 | > 100 | > 100 |
| CCCOC(=O)NC(C)C(=O)NC(CCC(=O)NC(CCCC(N)C(=O)O)C(=O)NC(C)C(=O)O)C(=O)O (centres undefined) | 30.9 | 38.4 | 32.2 | 31.3 | > 100 | > 100 | 34.6 | 48.7 | > 100 |
